Results reported in PMC8022998 (Biomacromolecules, 2020).

Molecular target: TSPO (translocator protein (18 kDa)) (Oryctolagus cuniculus, UniProt G1SMF7)
Assay: [3H]-PK11195 radioligand displacement, size exclusion desalting plates
Format: binding
Conditions: 1.2 nM [3H]-PK11195, 50 mM Tris-HCl pH 7.4, 30 min, room temperature; isolated mitochondria

Chain of TSPO (translocator protein (18 kDa)) (G1SMF7 229-397): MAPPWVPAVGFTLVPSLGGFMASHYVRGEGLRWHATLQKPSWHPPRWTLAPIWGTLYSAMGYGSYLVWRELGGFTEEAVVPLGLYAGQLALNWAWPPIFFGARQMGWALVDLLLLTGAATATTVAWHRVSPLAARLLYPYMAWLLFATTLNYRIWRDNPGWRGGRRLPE

Row | SMILES | IC50 [µM]
1 | CCC(C)N(C)C(=O)c1cc2ccccc2c(-c2ccccc2Cl)n1 (centres unmarked) [PK11195] | 0.005 ± 0.0005
2 | CCN(CC)C(=O)Cc1c(-c2ccc(OCCn3cc(CO)nn3)cc2)nn2c(C)cc(C)nc12 [DPA-triazole] | 0.1 ± 0.02
